Source: PubChem BioAssay AID1963421 (Molecular Pharmacology Branch, DTP, NCI, 2024)

Test system: 519858-162-T-J1-PDC complex spheroid growth, % test/control
Test: Anticancer human tumor 519858-162-T-J1-PDC patient-derived colon adenocarcinoma cell line growth inhibition [Asc]
Conditions: for IC50: curve of first compound; for viability, T/C: stronger effect = lower value
Summary of the method: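 Complex solid-tumor spheroids incorporating human endothelial and mesenchymal stem cells received single agents or combinations over half-log dilution ranges anchored to clinical Cmax.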

[1] = second compound 0.00949 µM, first compound 0.0316 µM
[2] = second compound 0.00949 µM, first compound 0.1 µM
[3] = second compound 0.00949 µM, first compound 0.316 µM
[4] = second compound 0.00949 µM, first compound 1 µM
[5] = second compound 0.03 µM, first compound 0.0316 µM
[6] = second compound 0.03 µM, first compound 0.1 µM
[7] = second compound 0.03 µM, first compound 0.316 µM
[8] = second compound 0.03 µM, first compound 1 µM
[9] = second compound 0.0949 µM, first compound 0.0316 µM
[10] = second compound 0.0949 µM, first compound 0.1 µM
[11] = second compound 0.0949 µM, first compound 0.316 µM
[12] = second compound 0.0949 µM, first compound 1 µM
[13] = second compound 0.3 µM, first compound 0.0316 µM
[14] = second compound 0.3 µM, first compound 0.1 µM
[15] = second compound 0.3 µM, first compound 0.316 µM
[16] = second compound 0.3 µM, first compound 1 µM
[17] = second compound 0.949 µM, first compound 0.0316 µM
[18] = second compound 0.949 µM, first compound 0.1 µM
[19] = second compound 0.949 µM, first compound 0.316 µM
[20] = second compound 0.949 µM, first compound 1 µM
[21] = second compound 3 µM, first compound 0.0316 µM
[22] = second compound 3 µM, first compound 0.1 µM
[23] = second compound 3 µM, first compound 0.316 µM
[24] = second compound 3 µM, first compound 1 µM
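Also: seven day drug exposure begun three days after spheroid seeding.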
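For viability, T/C in this document: 100% = DMSO vehicle wells and lower values mean less viable spheroid.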

`C=C(F)C(=O)N1CCN(c2nc(OCC3CCCN3C)nc3c2CCN(c2cccc4cccc(Cl)c24)C3)CC1CC#N` (centres undefined) + CCN1C(C(=O)NC23CCC(C(=O)O)(CC2)CC3)C(c2cccc(Cl)c2F)C2(C(=O)Nc3cc(Cl)ccc32)C12CCCCC2 was tested, and the IC50 (second compound 0.00949 µM) was 7.46 µM, the IC50 (second compound 0.03 µM) was > 10 µM and the IC50 (second compound 0.0949 µM) was > 10 µM. The IC50 (second compound 0.3 µM) was 9.03 µM, the IC50 (second compound 0.949 µM) was 4.55 µM and the IC50 (second compound 3 µM) was 2.79 µM. It also gave a viability, T/C [1] of 114%, a viability, T/C [2] of 80.6% and a viability, T/C [3] of 84.5%. It also gave a viability, T/C [4] of 96.3%, a viability, T/C (second compound 0.00949 µM, first compound 3.16 µM) of 71.7% and a viability, T/C (second compound 0.00949 µM, first compound 10 µM) of 41.4%. The viability, T/C [5] was 102%, the viability, T/C [6] was 84% and the viability, T/C [7] was 78.4%. It also gave a viability, T/C [8] of 84.3%, a viability, T/C (second compound 0.03 µM, first compound 3.16 µM) of 71.9% and a viability, T/C (second compound 0.03 µM, first compound 10 µM) of 52.5%. It also gave a viability, T/C [9] of 126%, a viability, T/C [10] of 110% and a viability, T/C [11] of 76.2%. It also gave a viability, T/C [12] of 102%, a viability, T/C (second compound 0.0949 µM, first compound 3.16 µM) of 84.7% and a viability, T/C (second compound 0.0949 µM, first compound 10 µM) of 41.6%. It also gave a viability, T/C [13] of 81%, a viability, T/C [14] of 73.8% and a viability, T/C [15] of 97.7%. The viability, T/C [16] was 90.5%, the viability, T/C (second compound 0.3 µM, first compound 3.16 µM) was 79.7% and the viability, T/C (second compound 0.3 µM, first compound 10 µM) was 47.2%. It also gave a viability, T/C [17] of 95.5%, a viability, T/C [18] of 76.6% and a viability, T/C [19] of 96.7%. It also gave a viability, T/C [20] of 86.3%, a viability, T/C (second compound 0.949 µM, first compound 3.16 µM) of 58.1% and a viability, T/C (second compound 0.949 µM, first compound 10 µM) of 32.4%. It also gave a viability, T/C [21] of 74.7%, a viability, T/C [22] of 81% and a viability, T/C [23] of 82.7%. The viability, T/C [24] was 70%, the viability, T/C (second compound 3 µM, first compound 3.16 µM) was 47.8% and the viability, T/C (second compound 3 µM, first compound 10 µM) was 26.2%.

For `CCN1CCN(Cc2ccc(Nc3ncc(F)c(-c4cc(F)c5nc(C)n(C(C)C)c5c4)n3)nc2)CC1` + CCN1C(C(=O)NC23CCC(C(=O)O)(CC2)CC3)C(c2cccc(Cl)c2F)C2(C(=O)Nc3cc(Cl)ccc32)C12CCCCC2, the IC50 (second compound 0.00949 µM) was > 1 µM, the IC50 (second compound 0.03 µM) was > 1 µM and the IC50 (second compound 0.0949 µM) was > 1 µM. For the same compound, the IC50 (second compound 0.3 µM) was > 1 µM, the IC50 (second compound 0.949 µM) was > 1 µM and the IC50 (second compound 3 µM) was > 1 µM. For the same compound, the viability, T/C (second compound 0.00949 µM, first compound 0.00316 µM) was 85.7%, the viability, T/C (second compound 0.00949 µM, first compound 0.01 µM) was 89.3% and the viability, T/C [1] was 76.2%. For the same compound, the viability, T/C [2] was 88.8%, the viability, T/C [3] was 60.2% and the viability, T/C [4] was 71%. It also gave a viability, T/C (second compound 0.03 µM, first compound 0.00316 µM) of 124%, a viability, T/C (second compound 0.03 µM, first compound 0.01 µM) of 84.4% and a viability, T/C [5] of 91.5%. The viability, T/C [6] was 105%, the viability, T/C [7] was 93.4% and the viability, T/C [8] was 76.9%. For the same compound, the viability, T/C (second compound 0.0949 µM, first compound 0.00316 µM) was 99.8%, the viability, T/C (second compound 0.0949 µM, first compound 0.01 µM) was 95.7% and the viability, T/C [9] was 86.2%. It also gave a viability, T/C [10] of 81.7%, a viability, T/C [11] of 67.7% and a viability, T/C [12] of 58.8%. For the same compound, the viability, T/C (second compound 0.3 µM, first compound 0.00316 µM) was 97.6%, the viability, T/C (second compound 0.3 µM, first compound 0.01 µM) was 83.5% and the viability, T/C [13] was 69.1%. For the same compound, the viability, T/C [14] was 61.9%, the viability, T/C [15] was 64.2% and the viability, T/C [16] was 104%. It also gave a viability, T/C (second compound 0.949 µM, first compound 0.00316 µM) of 87.4%, a viability, T/C (second compound 0.949 µM, first compound 0.01 µM) of 72.6% and a viability, T/C [17] of 84.8%. The viability, T/C [18] was 80.9%, the viability, T/C [19] was 81.2% and the viability, T/C [20] was 63%. The viability, T/C (second compound 3 µM, first compound 0.00316 µM) was 71.4%, the viability, T/C (second compound 3 µM, first compound 0.01 µM) was 69.9% and the viability, T/C [21] was 78.6%. The viability, T/C [22] was 89.2%, the viability, T/C [23] was 72.7% and the viability, T/C [24] was 66.4%.
